Data taken from paper PMC8119466, “A screen of FDA-approved drugs identifies inhibitors of protein tyrosine phosphatase 4A3 (PTP4A3 or PRL-3)” (Scientific Reports, 2021).
Structures can show the parent of a compound that is named as a salt. Where two headings read alike, the source gives them in different places.

Tests used:
Type in all cases: biochemical
recombinant PRL-3 = target: T1, recombinant PRL-3 (Homo sapiens, UniProt O75365); assay: In vitro phosphatase assay (DiFMUP hydrolysis), PRL-3; note: test concentration or dose not given here
T1 construct: 6xHis (N, cleaved yes); made in house; host or cells: E. coli One Shot BL21 Star
T1 sequence (O75365 whole entry): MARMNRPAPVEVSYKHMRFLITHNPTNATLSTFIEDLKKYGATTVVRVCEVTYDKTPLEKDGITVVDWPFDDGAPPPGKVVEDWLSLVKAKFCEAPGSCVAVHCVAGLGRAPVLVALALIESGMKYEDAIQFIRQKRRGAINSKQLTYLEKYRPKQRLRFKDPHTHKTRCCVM

recombinant PRL-1 = target: T2, recombinant PRL-1 (Homo sapiens, UniProt Q93096); assay: In vitro phosphatase assay (DiFMUP hydrolysis), PRL-1; note: test concentration or dose not given here
T2 construct: 6xHis (N, cleaved yes); made in house; host or cells: E. coli One Shot BL21 Star
T2 sequence (Q93096 1-173): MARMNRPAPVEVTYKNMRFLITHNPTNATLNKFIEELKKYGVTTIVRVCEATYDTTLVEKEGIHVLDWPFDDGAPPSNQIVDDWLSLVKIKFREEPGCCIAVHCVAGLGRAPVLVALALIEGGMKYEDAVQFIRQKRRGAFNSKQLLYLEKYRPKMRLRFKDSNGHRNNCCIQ

recombinant PRL-2 = target: T3, recombinant PRL-2 (Homo sapiens, UniProt Q12974); assay: In vitro phosphatase assay (DiFMUP hydrolysis), PRL-2;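 note: PRL-2 activity read as DiFMUP hydrolysis after 20 min at room temperature with drug, enzyme first pre-reduced at 4 °C for 20 min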
T3 construct: 6xHis (N, cleaved yes); made in house; host or cells: E. coli One Shot BL21 Star
T3 sequence (Q12974 1-167): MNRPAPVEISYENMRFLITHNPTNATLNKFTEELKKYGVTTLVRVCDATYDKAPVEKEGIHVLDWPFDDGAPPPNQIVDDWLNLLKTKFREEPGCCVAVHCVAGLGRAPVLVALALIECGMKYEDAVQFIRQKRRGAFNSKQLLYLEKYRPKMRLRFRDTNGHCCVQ

[1] = FDA-approved drug screen, compared to DMSO
[2] = FDA-approved drug screen, activity compared to DMSO

Molecule	% Phosphatase Activity (compared to DMSO) PRL-3 (recombinant PRL-3; [1]) [%]	% Phosphatase Activity (compared to DMSO) PRL-2 (recombinant PRL-2; [1]) [%]	other results
COc1cc(Nc2c(C#N)cnc3cc(OCCCN4CCN(C)CC4)c(OC)cc23)c(Cl)cc1Cl [Bosutinib (SKI-606)]	82		% Phosphatase Activity (compared to DMSO) PRL-1 (recombinant PRL-1; [1]): 94%
CN/C(=N/CCSCc1nc[nH]c1C)NC#N [Cimetidine]			% Phosphatase Activity (compared to DMSO) PRL-3 (recombinant PRL-3): 112%; % Phosphatase Activity (compared to DMSO) PRL-1 (recombinant PRL-1): 96%
CC[C@H]1OC(=O)[C@H](C)[C@@H](O[C@H]2C[C@@](C)(OC)[C@@H](O)[C@H](C)O2)[C@H](C)[C@@H](O[C@@H]2O[C@H](C)C[C@H](N(C)C)[C@H]2O)[C@](C)(OC)C[C@@H](C)C(=O)[C@H](C)[C@@H](O)[C@]1(C)O [Clarithromycin]	86	111	
Clc1ccccc1C(c1ccccc1)(c1ccccc1)n1ccnc1 [Clotrimazole]	88	108	
C[C@@H](Oc1cc(-c2cnn(C3CCNCC3)c2)cnc1N)c1c(Cl)ccc(F)c1Cl [Crizotinib (PF-02341066)]	81	119	
CN1CCC(=C2c3ccccc3C=Cc3ccccc32)CC1 [Cyproheptadine HCl]	93	112	
N[C@@H]1CON=C1O [D-Cycloserine]	95	101	
C[N+](C)(C)CCCCCCCCCC[N+](C)(C)C [Decamethonium Bromide]	71	118	
C[N+]1(C)CCC(=C(c2ccccc2)c2ccccc2)CC1 [Diphemanil Methylsulfate]	91	124	
CN(CCOc1ccc(NS(C)(=O)=O)cc1)CCc1ccc(NS(C)(=O)=O)cc1 [Dofetilide]	82	88	
CCN[C@H]1C[C@H](C)S(=O)(=O)c2sc(S(N)(=O)=O)cc21 [Dorzolamide HCl]	87	81	
CCn1cc(C(=O)O)c(=O)c2cc(F)c(N3CCNCC3)nc21 [Enoxacin]	98	95	
O=S(=O)([O-])CCCS(=O)(=O)[O-].[Na+].[Na+] [Eprodisate (disodium)]	112	126	
OC(Cn1cncn1)(Cn1cncn1)c1ccc(F)cc1F [Fluconazole]	76	97	
O=c1[nH]cc(F)c(=O)[nH]1 [Fluorouracil (5-Fluoracil, 5-FU)]	75	109	
N[C@@H](CSCCCO)C(=O)O [Fudosteine]	92	75	
Br.COc1ccc2c3c1O[C@H]1C[C@@H](O)C=C[C@@]31CCN(C)C2 [Galanthamine HBr]	93	85	
CC1(C)O[C@@H]2C[C@H]3[C@@H]4CCC5=CC(=O)CC[C@]5(C)[C@@]4(F)[C@@H](O)C[C@]3(C)[C@]2(C(=O)CCl)O1 [Halcinonide]	93	105	
Cl.Cl.OCCOCCN1CCN(C(c2ccccc2)c2ccc(Cl)cc2)CC1 (stereo not shown) [Hydroxyzine 2HCl]	85	103	
COC1=C(OC)C(=O)C(CCCCCCCCCCO)=C(C)C1=O [Idebenone]	101	150	
CCC(C)n1ncn(-c2ccc(N3CCN(c4ccc(OCC5COC(Cn6cncn6)(c6ccc(Cl)cc6Cl)O5)cc4)CC3)cc2)c1=O (stereo not shown) [Itraconazole]	74	93	
CC[C@@H](C(N)=O)N1CCCC1=O [Levetiracetam]	71	90	
CCN(CC)CC(=O)Nc1c(C)cccc1C [Lidocaine]	63	91	
COC(=O)C1=C(C)NC(C)=C(C(=O)OCCN2CCN(C(c3ccccc3)c3ccccc3)CC2)C1c1cccc([N+](=O)[O-])c1 (stereo not shown) [Manidipine]	77	93	
C#C[C@]1(O)CC[C@H]2[C@@H]3CCc4cc(OC)ccc4[C@H]3CC[C@@]21C [Mestranol]	77	99	

Molecule	% Phosphatase Activity (compared to DMSO) PRL-3 (recombinant PRL-3; [1]) [%]	% Phosphatase Activity (compared to DMSO) PRL-2 (recombinant PRL-2; [1]) [%]	other results
O=C(NCCN1CCOCC1)c1ccc(Cl)cc1 [Moclobemide (Ro 111163)]	83	109	
Cl.N=C(N=C(N)N)N1CCOCC1 [Moroxydine HCl]	79	102	
FC(F)(F)c1ccc(/C=C/c2nc(COc3ccc(CCCCn4ccnn4)cc3)co2)cc1 [Mubritinib (TAK 165)]			% Phosphatase Activity (compared to DMSO) PRL-3 (recombinant PRL-3): 101%; % Phosphatase Activity (compared to DMSO) PRL-2 (recombinant PRL-2): 114%
C=C1CC[C@@]2(O)[C@H]3Cc4ccc(O)c5c4[C@@]2(CCN3CC2CC2)[C@H]1O5 [Nalmefene HCl]	95	102	
Cl.O=C(O)/C=C/c1ccc(Cn2ccnc2)cc1 [Ozagrel HCl]	81	120	
CC(=O)O[C@H]1C[C@@H]2CC[C@@H]3[C@H](CC[C@@]4(C)[C@H]3C[C@H]([N+]3(C)CCCCC3)[C@@H]4OC(C)=O)[C@@]2(C)C[C@@H]1[N+]1(C)CCCCC1.[Br-].[Br-] [Pancuronium dibromide]	85	109	
Nc1nc2[nH]cc(CCc3ccc(C(=O)N[C@@H](CCC(=O)[O-])C(=O)[O-])cc3)c2c(=O)[nH]1.Nc1nc2[nH]cc(CCc3ccc(C(=O)N[C@@H](CCC(=O)[O-])C(=O)[O-])cc3)c2c(=O)[nH]1.O.O.O.O.O.[Na+].[Na+].[Na+].[Na+] [Pemetrexed Disodium Hydrate]	108	101	
CC1(C)S[C@@H]2[C@H](NC(=O)Cc3ccccc3)C(=O)N2[C@H]1C(=O)O [Penicillin G Sodium]	75	105	
CCOc1ccc(NC(C)=O)cc1 [Phenacetin]	81	114	
O=C1NC(=O)C(c2ccccc2)(c2ccccc2)N1 [Phenytoin]	84		% Phosphatase Activity (compared to DMSO) PRL-1 (recombinant PRL-1; [1]): 104%
CC(C)N(CCNC(=O)CN1CCCC1=O)C(C)C [Pramiracetam]	88	88	
CCc1nc(N)nc(N)c1-c1ccc(Cl)cc1 [Pyrimethamine]	89	109	
CN1[C@@H]2C[C@@H](OC(=O)[C@H](CO)c3ccccc3)C[C@H]1[C@@H]1O[C@@H]12 [Scopolamine HBr]	77		% Phosphatase Activity (compared to DMSO) PRL-1 (recombinant PRL-1; [1]): 91%
Cc1ccnc(NS(=O)(=O)c2ccc(N)cc2)n1 [Sulfamerazine]			% Phosphatase Activity (compared to DMSO) PRL-3 (recombinant PRL-3; [2]): 83%; % Phosphatase Activity (compared to DMSO) PRL-2 (recombinant PRL-2; [2]): 108%
Nc1ccc(S(N)(=O)=O)cc1 [Sulfanilamide]			% Phosphatase Activity (compared to DMSO) PRL-3 (recombinant PRL-3; [2]): 77%; % Phosphatase Activity (compared to DMSO) PRL-2 (recombinant PRL-2; [2]): 92%
Nc1c2c(nc3ccccc13)CCCC2 [Tacrine HCl]			% Phosphatase Activity (compared to DMSO) PRL-3 (recombinant PRL-3): 89%; % Phosphatase Activity (compared to DMSO) PRL-2 (recombinant PRL-2): 89%
CC/C(=C(\c1ccccc1)c1ccc(OCCN(C)C)cc1)c1ccccc1 [Tamoxifen]			% Phosphatase Activity (compared to DMSO) PRL-3 (recombinant PRL-3; [2]): 81%; % Phosphatase Activity (compared to DMSO) PRL-2 (recombinant PRL-2; [2]): 110%
CN1CCC(COc2cnc(-c3cccc(Cn4nc(-c5cccc(C#N)c5)ccc4=O)c3)nc2)CC1 [Tepotinib (EMD 1214063)]			% Phosphatase Activity (compared to DMSO) PRL-3 (recombinant PRL-3; [2]): 113%; % Phosphatase Activity (compared to DMSO) PRL-2 (recombinant PRL-2; [2]): 110%
CN(C/C=C/C#CC(C)(C)C)Cc1cccc2ccccc12 [Terbinafine]			% Phosphatase Activity (compared to DMSO) PRL-3 (recombinant PRL-3; [2]): 84%; % Phosphatase Activity (compared to DMSO) PRL-2 (recombinant PRL-2; [2]): 122%
COc1cc(Cc2cnc(N)nc2N)cc(OC)c1OC [Trimethoprim]			% Phosphatase Activity (compared to DMSO) PRL-3 (recombinant PRL-3): 79%; % Phosphatase Activity (compared to DMSO) PRL-2 (recombinant PRL-2): 107%
CN1[C@@H]2CC[C@H]1C[C@@H](OC(=O)c1c[nH]c3ccccc13)C2 [Tropisetron]			% Phosphatase Activity (compared to DMSO) PRL-3 (recombinant PRL-3; [2]): 93%; % Phosphatase Activity (compared to DMSO) PRL-2 (recombinant PRL-2; [2]): 100%
C[C@@H](c1ncncc1F)[C@](O)(Cn1cncn1)c1ccc(F)cc1F [Voriconazole]			% Phosphatase Activity (compared to DMSO) PRL-3 (recombinant PRL-3; [2]): 86%; % Phosphatase Activity (compared to DMSO) PRL-2 (recombinant PRL-2; [2]): 92%
OC[C@@H](O)[C@H](O)[C@@H](O)CO [Xylitol]			% Phosphatase Activity (compared to DMSO) PRL-3 (recombinant PRL-3; [2]): 96%; % Phosphatase Activity (compared to DMSO) PRL-2 (recombinant PRL-2; [2]): 99%
Bleomycin Sulfate	64	100	
L-Adrenaline			% Phosphatase Activity (compared to DMSO) PRL-3 (recombinant PRL-3): 71%; % Phosphatase Activity (compared to DMSO) PRL-2 (recombinant PRL-2): 98%
